glass transition temperature	SMILES
104.30 °C	*CCC(c1ccccc1)C(*)c1ccccc1 (repeat unit)
-52.50 °C	*CCCOC(=O)CCCCCCC(=O)O* (repeat unit)
143.00 °C	*c1ccc(C(=O)Oc2ccc(C(C)(C)c3ccc(OC(=O)c4ccc(N5C(=O)CC(SCCOCCSC6CC(=O)N(*)C6=O)C5=O)cc4)cc3)cc2)cc1 (repeat unit)
127.00 °C	*CCOC(=O)Nc1ccc(Cc2ccc(NC(=O)OCCOc3ccc(C(C)(C)c4ccc(O*)cc4)cc3)cc2)cc1 (repeat unit)
52.00 °C	*CCCCCCCCNC(=O)CCCCCCCCCCCCCCC(=O)N* (repeat unit)
274.00 °C	*c1ccc([Si](c2ccccc2)(c2ccccc2)c2ccc(-c3nnc(-c4ccc(-c5nnc(*)o5)cc4)o3)cc2)cc1 (repeat unit)
326.00 °C	*c1c(C)cc(C(c2cc(C)c(N3C(=O)c4ccc(-c5ccc6c(c5)C(=O)N(*)C6=O)cc4C3=O)c(C)c2)c2cccc3ccccc23)cc1C (repeat unit)
201.70 °C	*Oc1ccc2c(c1)C(C)(c1ccc(OC(*)=O)cc1)CC2(C)C (repeat unit)
-45.00 °C	*CC(C)(CO*)COCC(F)(F)C(F)(F)C(F)(F)F (repeat unit)
164.00 °C	*CCCCCCN1C(=O)c2ccc(Oc3ccc4c(c3)C(=O)N(*)C4=O)cc2C1=O (repeat unit)
-43.00 °C	*O[Si](C)(CCC(F)(F)F)O[Si](C)(CCC(F)(F)F)O[Si](C)(CCC(F)(F)F)CCC(F)(F)C(F)(F)C(F)(F)C(F)(F)C(F)(F)C(F)(F)CC[Si](*)(C)CCC(F)(F)F (repeat unit)
34.00 °C	*CCCCCCCCCCOC(=O)NNC(=O)CCCCCCCCC(=O)NNC(=O)O* (repeat unit)
113.00 °C	*Oc1ccc(OC(=O)c2ccc(C(*)=O)cc2Oc2ccc(C3CCCCC3)cc2)cc1 (repeat unit)
47.00 °C	*CCCCCCCCOC(=O)c1ccc(-c2ccc(C(=O)O*)cc2)cc1 (repeat unit)
304.00 °C	*C(=O)Nc1cccc(NC(=O)c2ccc3[nH]c(-c4cc(-c5nc6cc(*)ccc6[nH]5)cc(N5C(=O)c6ccccc6C5=O)c4)nc3c2)c1 (repeat unit)
180.00 °C	*CC(*)(CC(=O)OC(C)C)C(=O)OC12CC3CC(CC(C3)C1)C2 (repeat unit)
-6.50 °C	*CCOCCOCCOC(=O)NCCCCCCNC(=O)O* (repeat unit)
177.00 °C	*Oc1ccc2ccc(Oc3ccc(C(=O)Nc4ccc(Oc5ccc(C(C)(c6ccccc6)c6ccc(Oc7ccc(NC(=O)c8ccc(*)cc8)cc7)cc6)cc5)cc4)cc3)cc2c1 (repeat unit)
154.00 °C	*c1cc(Br)c(-c2c(Br)cc(N3C(=O)c4ccc(-c5ccc6c(c5)C(=O)N(*)C6=O)cc4C3=O)cc2C(=O)OCCCCCC)c(C(=O)OCCCCCC)c1 (repeat unit)
113.00 °C	*Oc1ccc(-c2ccc(OC(=O)c3cc(OCCCCCC)c(C(*)=O)cc3OCCCCCC)cc2)cc1 (repeat unit)

SMILES	glass transition temperature
*CC(*)C1CCC(C(C)(C)C)CC1 (repeat unit)	131.00 °C
*C(C)C(*)C(=O)OC(C)C (repeat unit)	149.00 °C
*CC(*)c1ccccc1COCC (repeat unit)	74.00 °C
*CC(*)OC(=O)OCC(Cl)(Cl)Cl (repeat unit)	74.00 °C
*CCCNC(=O)O* (repeat unit)	26.00 °C
*C(F)C(*)(F)F (repeat unit)	31.5 °C
*CC(CSCCCCC)O* (repeat unit)	-68.00 °C
*CC(*)(C)C(=O)OCc1ccc(Cl)cc1 (repeat unit)	43.60 °C
*OC1C(CO)OC(*)C(N)C1O (repeat unit)	194.00 °C

— the PolyMetriX glass transition set
